From patent publication US10457677B2 (priority 2015, dated 2019)
Like-named read-outs stand apart in the source and are kept apart here.

Key:
[1] = biological target: PI3K p110α/p85α (human) (Homo sapiens (Human), UniProt P42336); assay: PI3K p110α/p85α (human), non-radioactive assay (HTRF); type: biochemical; settings: for IC50: read-out: IC50 (PI3Kalpha)
[2] = biological target: PI3K p110δ/p85α (human) (Homo sapiens (Human), UniProt O00329); assay: PI3K p110δ/p85α (human), non-radioactive assay (HTRF); type: biochemical; settings: for IC50: read-out: IC50 (PI3Kdelta); for ratio IC50 (ATM) vs PI3Kdelta, selectivity with respect to PI3Kdelta: as printed:
[3] = biological target: PI3K p110β/p85α (human) (Homo sapiens (Human), UniProt P42338); assay: PI3K p110β/p85α (human), non-radioactive assay (HTRF); type: biochemical; settings: for IC50: read-out: IC50 (PI3Kbeta); for fold selectivity for ATM over PI3Kbeta (IC50 PI3Kbeta / IC50 ATM): IC50 (ATM) at least 2000 times higher compared with IC50 (PI3Kbeta)
Procedure: PI3K p110β/p85α (Human), Non-radioactive Assay
PI3K p110β/p85α (human) was incubated in an assay buffer comprising 10 μM phosphati-dylinositol 4,5-bisphosphate and MgATP (concentration as necessary). The reaction was initiated by addition of MgATP solution. After an incubation time of 30 min at room temperature, the reaction was stopped by addition of a solution consisting of EDTA and biotinylated phosphatidylinositol 3,4,5-trisphosphate. Finally, the detection buffer, consisting of a europium-labelled anti-GST monoclonal antibody, a GST-labelled GRP1 PH domain and streptavidin allophycocyanin, was added. The plate was read out via homogeneous time-resolved fluorescence (HTRF) and the corresponding signals were evaluated via the formula HTRF=10000×(Em665nm/Em620nm).

[4] = system: phosphorylation of CHK2 (phospho-Thr68) in HCT116 cells; assay: Cellular pCHK2 assay: bleomycin-induced phosphorylation of CHK2 (phospho-Thr68), immunofluorescence high-content analysis; type: cell-based, human; settings: Homo sapiens, HCT-116, 4 h, read-out: IC50 (pCHK2)
How it was run: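 HCT116 cells in DMEM with 10% FCS, incubated overnight at 37° C, then given compounds (1 nM to 30 μM, 0.5% DMSO) together with 10 μM bleomycin. Phospho-Thr68 CHK2 immunostained and imaged by high-content imager; nuclei with pCHK2 above background counted, cell count from propidium iodide DNA stain.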

[5] = biological target: PI3K (p120γ) (human) (Homo sapiens (Human), UniProt P48736); assay: PI3K (p120γ) (human), non-radioactive assay (HTRF); type: biochemical; settings: for IC50: read-out: IC50 (PI3Kgamma); for ratio IC50 (ATM) vs PI3Kgamma, selectivity with respect to PI3Kgamma: as printed:
How it was run: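 Enzyme was run with 10 μM phosphatidylinositol 4,5-bisphosphate, starting the reaction with MgATP at an unspecified level, for 30 min at room temperature. The stop used EDTA plus biotinylated PIP3, and detection used Eu-anti-GST, GST-GRP1 PH domain and streptavidin-APC. Signal was taken as HTRF = 10000×(Em665nm/Em620nm).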

[6] = biological target: mTOR (human) (Homo sapiens (Human), UniProt P42345); assay: mTOR (human) kinase assay, [γ-33P-ATP] filter assay; type: biochemical; settings: for ratio IC50 (ATM) : IC50 (mTOR), selectivity with respect to mTOR: as printed:
Procedure: Furthermore, the effect, in particular inhibition, of other kinases and thus the selectivity of the compounds according to the invention can be determined with the aid of the following assay:
mTOR (human) was incubated with 50 mM HEPES pH 7.5, 1 mM EGTA, 0.01% Tween 20, 2 mg/ml of the substrate, 3 mM MnCl2 and [γ-^33P-ATP] (specific activity approximately 500 cpm/pmol, concentration as necessary). The reaction was initiated by addition of MgATP solution. After incubation at room temperature for 40 minutes, the reaction was stopped by addition of 3% phosphoric acid. 10 μl of the reaction solution were then transferred dropwise onto a P30 filtermat and washed three times for 5 min in 75 mM phosphoric acid and once in methanol, dried and evaluated by means of liquid scintillation counting.

[7] = biological target: purified human recombinant ATM (ataxia telangiectasia mutated), full length (Homo sapiens (Human), UniProt Q13315); assay: ATM kinase assay - determination of ATM inhibition (IC50 ATM), TR-FRET; type: biochemical
How it was run: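 Full-length enzyme, expressed in a mammalian cell line, pre-incubated 15 min with inhibitor in 25 mM HEPES pH 8.0, 10 mM Mg(CH3COO)2, 1 mM MnCl2, 0,1% BSA, 0,01% Brij 35, 5 mM DTT. Full-length cmyc-p53 (Sf21-expressed) and ATP then added, 30-35 min at 22° C. EDTA stop; p53 S15 phosphorylation read by TR-FRET antibodies.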

purified human recombinant ATM (ataxia telangiectasia mutated), full length, sequence (Q13315 whole entry, change not shown): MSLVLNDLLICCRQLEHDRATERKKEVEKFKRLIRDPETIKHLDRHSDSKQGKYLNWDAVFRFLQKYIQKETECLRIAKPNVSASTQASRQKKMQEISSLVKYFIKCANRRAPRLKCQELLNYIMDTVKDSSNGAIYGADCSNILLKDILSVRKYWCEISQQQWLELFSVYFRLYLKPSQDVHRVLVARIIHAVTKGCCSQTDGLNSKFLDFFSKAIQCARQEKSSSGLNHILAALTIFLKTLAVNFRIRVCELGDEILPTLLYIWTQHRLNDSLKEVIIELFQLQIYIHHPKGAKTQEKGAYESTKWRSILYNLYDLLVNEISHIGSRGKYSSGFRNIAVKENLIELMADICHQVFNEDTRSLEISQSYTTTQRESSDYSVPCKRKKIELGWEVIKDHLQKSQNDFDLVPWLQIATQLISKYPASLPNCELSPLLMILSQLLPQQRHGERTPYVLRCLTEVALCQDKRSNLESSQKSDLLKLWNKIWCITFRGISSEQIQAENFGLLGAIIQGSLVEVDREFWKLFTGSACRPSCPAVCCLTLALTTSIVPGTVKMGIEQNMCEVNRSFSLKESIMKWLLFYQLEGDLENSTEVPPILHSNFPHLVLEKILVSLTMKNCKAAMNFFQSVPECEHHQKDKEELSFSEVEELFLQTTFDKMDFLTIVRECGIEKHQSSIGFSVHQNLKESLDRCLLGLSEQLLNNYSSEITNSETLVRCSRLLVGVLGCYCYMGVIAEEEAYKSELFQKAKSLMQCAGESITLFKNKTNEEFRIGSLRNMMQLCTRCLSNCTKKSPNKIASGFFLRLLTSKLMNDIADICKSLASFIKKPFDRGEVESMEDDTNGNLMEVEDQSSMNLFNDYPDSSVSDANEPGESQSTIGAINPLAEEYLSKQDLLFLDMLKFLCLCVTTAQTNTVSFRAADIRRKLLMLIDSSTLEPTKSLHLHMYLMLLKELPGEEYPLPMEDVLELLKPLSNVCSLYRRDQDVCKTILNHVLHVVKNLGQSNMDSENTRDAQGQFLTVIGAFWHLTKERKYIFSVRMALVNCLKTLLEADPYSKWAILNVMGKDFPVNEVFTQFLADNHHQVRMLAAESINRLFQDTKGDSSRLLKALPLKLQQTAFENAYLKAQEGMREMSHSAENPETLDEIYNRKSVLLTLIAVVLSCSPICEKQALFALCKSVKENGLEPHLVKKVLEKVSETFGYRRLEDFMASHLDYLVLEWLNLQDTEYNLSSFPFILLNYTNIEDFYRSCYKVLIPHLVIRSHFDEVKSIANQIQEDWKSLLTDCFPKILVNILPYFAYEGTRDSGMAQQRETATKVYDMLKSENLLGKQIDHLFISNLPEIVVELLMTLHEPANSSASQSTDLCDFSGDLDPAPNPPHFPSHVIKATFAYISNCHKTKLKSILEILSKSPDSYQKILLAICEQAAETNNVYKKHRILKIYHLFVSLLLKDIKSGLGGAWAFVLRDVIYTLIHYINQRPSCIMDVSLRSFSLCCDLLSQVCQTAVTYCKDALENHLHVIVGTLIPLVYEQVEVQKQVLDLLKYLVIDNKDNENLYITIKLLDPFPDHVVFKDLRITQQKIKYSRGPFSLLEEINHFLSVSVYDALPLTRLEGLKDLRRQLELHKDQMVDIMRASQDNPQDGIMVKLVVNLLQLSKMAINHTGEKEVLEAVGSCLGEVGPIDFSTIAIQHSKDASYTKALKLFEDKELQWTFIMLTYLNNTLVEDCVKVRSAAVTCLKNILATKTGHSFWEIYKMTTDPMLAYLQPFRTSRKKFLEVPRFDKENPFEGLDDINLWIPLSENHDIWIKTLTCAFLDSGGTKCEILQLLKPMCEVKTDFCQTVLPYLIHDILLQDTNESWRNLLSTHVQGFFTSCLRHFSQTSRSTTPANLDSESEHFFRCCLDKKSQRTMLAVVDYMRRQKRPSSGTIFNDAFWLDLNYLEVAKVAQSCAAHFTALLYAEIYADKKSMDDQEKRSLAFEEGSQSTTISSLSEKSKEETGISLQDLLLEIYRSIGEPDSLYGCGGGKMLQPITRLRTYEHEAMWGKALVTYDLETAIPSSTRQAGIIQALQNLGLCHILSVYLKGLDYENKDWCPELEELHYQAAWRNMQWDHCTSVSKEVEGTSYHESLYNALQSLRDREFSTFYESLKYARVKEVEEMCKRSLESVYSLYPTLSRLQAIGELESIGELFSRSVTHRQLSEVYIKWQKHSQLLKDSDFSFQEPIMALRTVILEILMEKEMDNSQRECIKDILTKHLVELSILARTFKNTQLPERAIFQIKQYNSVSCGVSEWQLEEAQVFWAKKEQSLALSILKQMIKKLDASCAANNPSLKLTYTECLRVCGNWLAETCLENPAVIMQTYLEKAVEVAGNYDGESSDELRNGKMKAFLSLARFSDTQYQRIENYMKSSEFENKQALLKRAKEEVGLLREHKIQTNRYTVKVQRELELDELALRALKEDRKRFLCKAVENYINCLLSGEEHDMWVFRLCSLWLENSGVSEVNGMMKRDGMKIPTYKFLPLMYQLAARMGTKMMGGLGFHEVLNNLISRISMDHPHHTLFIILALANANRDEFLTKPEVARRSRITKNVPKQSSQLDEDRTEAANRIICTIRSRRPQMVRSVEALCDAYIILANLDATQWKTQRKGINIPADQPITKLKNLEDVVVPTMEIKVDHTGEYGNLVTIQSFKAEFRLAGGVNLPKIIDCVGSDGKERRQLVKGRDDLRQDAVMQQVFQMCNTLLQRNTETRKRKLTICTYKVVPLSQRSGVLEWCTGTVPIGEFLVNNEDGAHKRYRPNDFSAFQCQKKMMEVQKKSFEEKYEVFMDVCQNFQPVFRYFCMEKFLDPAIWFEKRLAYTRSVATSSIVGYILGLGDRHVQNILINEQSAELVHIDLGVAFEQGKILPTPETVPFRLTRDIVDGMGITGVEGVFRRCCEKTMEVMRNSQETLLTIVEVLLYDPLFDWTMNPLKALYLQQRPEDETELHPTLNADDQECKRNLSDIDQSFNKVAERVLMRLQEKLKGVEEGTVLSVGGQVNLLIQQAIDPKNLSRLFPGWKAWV
PI3K p110δ/p85α (human), sequence (O00329 whole entry): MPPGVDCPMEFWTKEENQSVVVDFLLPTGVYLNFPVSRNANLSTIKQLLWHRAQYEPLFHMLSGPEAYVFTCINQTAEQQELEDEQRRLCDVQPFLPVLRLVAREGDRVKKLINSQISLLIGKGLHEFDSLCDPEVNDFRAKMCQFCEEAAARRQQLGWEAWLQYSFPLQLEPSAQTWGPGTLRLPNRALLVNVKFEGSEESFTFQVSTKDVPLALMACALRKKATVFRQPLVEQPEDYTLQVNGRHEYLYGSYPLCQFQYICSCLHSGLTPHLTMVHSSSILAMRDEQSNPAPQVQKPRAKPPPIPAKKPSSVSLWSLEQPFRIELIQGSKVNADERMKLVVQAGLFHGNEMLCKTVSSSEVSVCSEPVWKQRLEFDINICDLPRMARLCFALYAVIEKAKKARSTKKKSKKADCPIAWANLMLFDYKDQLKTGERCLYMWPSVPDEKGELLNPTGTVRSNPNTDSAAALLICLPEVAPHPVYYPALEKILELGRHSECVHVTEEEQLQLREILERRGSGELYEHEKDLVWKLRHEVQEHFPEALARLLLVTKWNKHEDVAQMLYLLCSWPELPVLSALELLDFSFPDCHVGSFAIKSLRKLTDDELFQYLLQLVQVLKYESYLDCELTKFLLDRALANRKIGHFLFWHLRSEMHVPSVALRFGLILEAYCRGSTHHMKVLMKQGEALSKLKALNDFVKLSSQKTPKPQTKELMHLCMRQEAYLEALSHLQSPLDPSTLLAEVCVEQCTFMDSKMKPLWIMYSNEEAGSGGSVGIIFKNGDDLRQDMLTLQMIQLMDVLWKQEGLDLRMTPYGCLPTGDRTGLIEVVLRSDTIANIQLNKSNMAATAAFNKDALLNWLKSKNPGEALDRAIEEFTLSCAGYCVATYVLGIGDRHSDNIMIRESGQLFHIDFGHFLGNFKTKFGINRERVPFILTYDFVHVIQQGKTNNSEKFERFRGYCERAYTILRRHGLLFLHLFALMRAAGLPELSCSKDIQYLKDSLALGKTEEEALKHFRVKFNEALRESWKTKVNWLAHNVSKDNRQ
PI3K p110δ/p85α (human), sequence (P27986 whole entry partner): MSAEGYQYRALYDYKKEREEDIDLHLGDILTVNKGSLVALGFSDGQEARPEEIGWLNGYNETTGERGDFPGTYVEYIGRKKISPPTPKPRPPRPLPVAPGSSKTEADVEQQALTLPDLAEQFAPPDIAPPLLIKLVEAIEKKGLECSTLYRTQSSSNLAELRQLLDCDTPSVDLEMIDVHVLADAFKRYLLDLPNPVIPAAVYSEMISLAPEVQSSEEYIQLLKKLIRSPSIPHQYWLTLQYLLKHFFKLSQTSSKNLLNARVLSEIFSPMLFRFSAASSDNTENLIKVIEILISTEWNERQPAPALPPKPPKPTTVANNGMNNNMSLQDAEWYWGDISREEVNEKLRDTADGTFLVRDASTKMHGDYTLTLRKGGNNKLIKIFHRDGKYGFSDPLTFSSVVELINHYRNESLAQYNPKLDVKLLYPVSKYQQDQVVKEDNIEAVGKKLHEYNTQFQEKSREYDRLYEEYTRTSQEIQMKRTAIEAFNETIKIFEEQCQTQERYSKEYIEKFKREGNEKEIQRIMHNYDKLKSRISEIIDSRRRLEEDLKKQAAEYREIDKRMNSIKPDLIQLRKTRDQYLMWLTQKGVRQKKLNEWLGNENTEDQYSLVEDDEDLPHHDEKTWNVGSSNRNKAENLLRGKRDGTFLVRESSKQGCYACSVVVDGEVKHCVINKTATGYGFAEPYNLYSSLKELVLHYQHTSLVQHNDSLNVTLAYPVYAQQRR

| SMILES | IC50 [1] [µM] | IC50 [2] [µM] | IC50 [3] [µM] | IC50 [4] [µM] | IC50 [5] [µM] | IC50 [6] [µM] | IC50 [7] [µM] | IC50 ([7]; 10 μM ATP, substrate p53) [µM] | ratio IC50 (ATM) vs PI3Kdelta, selectivity with respect to PI3Kdelta [2] | fold selectivity for ATM over PI3Kbeta (IC50 PI3Kbeta / IC50 ATM) [3] | ratio IC50 (ATM) vs PI3Kgamma, selectivity with respect to PI3Kgamma [5] | ratio IC50 (ATM) : IC50 (mTOR), selectivity with respect to mTOR [6] | ratio IC50 (ATM) vs PI3Kalpha, selectivity with respect to PI3Kalpha ([1]; as printed:) |
| --- | --- | --- | --- | --- | --- | --- | --- | --- | --- | --- | --- | --- | --- |
| COc1cc2ncc3c(c2cc1-c1cnn(C)c1)n(-c1ccnn1C)c(=O)n3C [Compound Example 49, 7-Methoxy-3-methyl-1-(2-methyl-2H-pyrazol-3-yl)-8-(1-methyl-1H-pyrazol-4-yl)-1,3-dihydroimidazo[4,5-c]-quinolin-2-one] | > 30 | > 30 | > 30 | 0.2 to 1 | > 30 | > 30 | < 0.01 | < 0.01 |  |  |  |  |  |
| COc1cc2ncc3c(c2cc1-c1cn[nH]c1)n(-c1ncccc1F)c(=O)n3C [Compound Example 7, 1-(3-Fluoropyridin-2-yl)-7-methoxy-3-methyl-8-(1H-pyrazol-4-yl)-1,3-dihydro-imidazo[4,5-c]quinolin-2-one] | > 30 | > 30 | > 30 | < 0.2 | > 30 | > 30 | < 0.001 | < 0.001 |  |  |  |  |  |
| COc1cc2ncc3c(c2cc1-c1cnn(C)c1)n(-c1ccncc1Cl)c(=O)n3C [compound 60, 1-(3-Chloropyridin-4-yl)-7-methoxy-3-methyl-8-(1-methyl-1H-pyrazol-4-yl)-1,3-dihydroimidazo[4,5-c] quinolin-2-one] | > 30 | > 30 | > 30 | 1 to 2 | > 30 | > 30 | < 0.01 | < 0.01 |  |  |  |  |  |
| COc1cc2ncc3c(c2cc1-c1cn[nH]c1)n(-c1c(C)cncc1F)c(=O)n3C [Compound Example 8, 1-(3-Fluoro-5-methylpyridin-4-yl)-7-methoxy-3-methyl-8-(1H-pyrazol-4-yl)-1,3-dihydroimidazo[4,5-c] quinolin-2-one] | > 30 | > 30 | > 30 | < 0.2 | > 30 | > 5 | < 0.001 | < 0.001 |  |  |  |  |  |
| COc1cc2ncc3c(c2cc1-c1cnn(C)c1)n(-c1ccncc1)c(=O)n3C [compound 58, 7-Methoxy-3-methyl-8-(1-methyl-1H-pyrazol-4-yl)-1-pyridin-4-yl-1,3-dihydro-imidazo[4,5-c]quinolin-2-one] | > 30 | > 30 | > 30 | 0.2 to 1 | > 30 | > 30 | < 0.01 | < 0.01 |  |  |  |  |  |
| [2H]C([2H])([2H])Oc1cncc(F)c1-n1c(=O)n(C)c2cnc3cc(OC)c(-c4cnn(C)c4)cc3c21 [compound 145, 1-[3-Fluoro-5-(trideuterio-methoxy)-4-pyridyl]-7-methoxy-3-methyl-8-(1-methylpyrazol-4-yl)imidazo-[4,5-c]quinolin-2-one] |  |  |  | 0.2 to 1 |  |  |  | < 0.001 | at least 2000 times | at least 2000 times | at least 2000 times | at least 2000 times |  |
| COc1cc2ncc3c(c2cc1-c1cnn(C)c1)n(-c1c(C)n[nH]c1C)c(=O)n3C [compound 118, 1-(3,5-Dimethyl-1H-pyrazol-4-yl)-7-methoxy-3-methyl-8-(1-methyl-1H-pyrazol-4-yl)-1,3-dihydroimidazo[4,5-c]-quinolin-2-one] |  |  |  | 0.2 to 1 |  |  |  | < 0.01 |  | at least 2000 times |  | at least 2000 times |  |
| COc1cc2ncc3[nH]c(=O)n(-c4ncc(F)cc4F)c3c2cc1-c1cn(C)nc1C [compound 108, 1-(3,5-Difluoropyridin-2-yl)-8-(1,3-dimethyl-1H-pyrazol-4-yl)-7-methoxy-1,3-dihydroimidazo[4,5-c]-quinolin-2-one] |  |  |  | 0.2 to 1 |  |  |  | < 0.001 | at least 2000 times | at least 2000 times | at least 2000 times |  | at least 2000 times |
